Measurements as given in ChEMBL document CHEMBL1201862, “PubChem BioAssay data set” (2004).
Counter-ions that a name gives are not always drawn. Activity calls are given as the source filed them.

How the values were obtained:
[1] = biological target: T1, Heat shock factor protein 1 (Mus musculus, UniProt P38532); assay: decrease of HSF1-responsive luciferase luminescence – cell-based, NIH3T3, dose retest, confirmation (AID 2382); format: functional;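 note: NIH3T3 fibroblasts with HSF1-driven luciferase reporter stressed by proteasome inhibitor MG132; luminescence from HSF1-driven luciferase expression after 8 hours of MG132 stress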
T1 sequence (P38532 whole entry): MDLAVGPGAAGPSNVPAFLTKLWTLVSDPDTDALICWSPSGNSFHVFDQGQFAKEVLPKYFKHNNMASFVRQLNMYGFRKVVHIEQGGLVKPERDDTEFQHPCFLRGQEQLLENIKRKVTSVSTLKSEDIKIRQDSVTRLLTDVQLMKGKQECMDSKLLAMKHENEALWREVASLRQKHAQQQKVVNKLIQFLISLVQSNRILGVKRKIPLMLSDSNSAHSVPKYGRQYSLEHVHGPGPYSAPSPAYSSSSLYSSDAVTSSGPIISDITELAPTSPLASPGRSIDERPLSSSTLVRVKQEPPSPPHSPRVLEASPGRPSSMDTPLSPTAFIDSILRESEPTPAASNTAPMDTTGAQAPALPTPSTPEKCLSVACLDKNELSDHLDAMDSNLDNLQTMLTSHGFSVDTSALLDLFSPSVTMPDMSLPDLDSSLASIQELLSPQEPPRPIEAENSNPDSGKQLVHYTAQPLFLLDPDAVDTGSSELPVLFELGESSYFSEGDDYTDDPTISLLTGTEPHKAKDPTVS

Cytochrome P450 3A4 = Cytochrome P450 3A4 (Homo sapiens, UniProt P08684);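 note: CYP3A4 tested as one member of a cytochrome P450 panel screen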
Cytochrome P450 1A2 = biological target: T2, Cytochrome P450 1A2 (Homo sapiens, UniProt P05177);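 note: PubChem cytochrome P450 panel assay, CYP1A2 panel member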
T2 sequence (P05177 whole entry): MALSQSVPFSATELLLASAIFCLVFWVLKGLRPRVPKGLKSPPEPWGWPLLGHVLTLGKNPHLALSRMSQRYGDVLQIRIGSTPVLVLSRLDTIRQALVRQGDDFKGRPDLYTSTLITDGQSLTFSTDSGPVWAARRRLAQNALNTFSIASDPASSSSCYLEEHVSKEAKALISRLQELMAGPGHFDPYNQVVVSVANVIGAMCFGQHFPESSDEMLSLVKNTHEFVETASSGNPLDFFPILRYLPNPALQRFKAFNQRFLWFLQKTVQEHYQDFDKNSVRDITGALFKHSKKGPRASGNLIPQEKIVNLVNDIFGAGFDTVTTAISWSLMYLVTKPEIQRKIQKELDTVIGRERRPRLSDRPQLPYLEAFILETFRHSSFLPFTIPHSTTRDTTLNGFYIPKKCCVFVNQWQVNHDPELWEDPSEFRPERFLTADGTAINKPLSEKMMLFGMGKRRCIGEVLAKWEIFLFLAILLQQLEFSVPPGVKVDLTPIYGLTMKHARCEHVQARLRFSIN

[2] = Luminescence Cell-Based Dose Response HTS to Identify Activators of Luciferase Translation or Activity in H4 […] Cells. [Related pubchem assays: 1829 (Project Summary), 1814 (Primary HTS)]; format: functional
[3] = Luminescence Cell-Based Dose Confirmation HTS to Identify Activators of 5'UTR Stem-Loop Driven Alpha-Synuclein mRNA Translation in H4 Neuroglioblastoma Cells. [Related pubchem assays: 1829 (Project Summary), 1814 (Primary HTS)]; format: functional
H4 = assay: Luminescence Cell-Based Dose Response HTS to Identify Activators of 5'UTR Stem-Loop Driven Prion Protein mRNA Translation in H4 Neuroglioblastoma Cells. [Related pubchem assays: 1829 (Project Summary), 1814 (Primary HTS)]; format: functional; settings: Homo sapiens
[4] = biological target: T1, Heat shock factor protein 1; assay: enhancement of HSF1-driven luciferase signal – cell-based, NIH3T3, luminescence, dose retest, confirmation (AID 435004); format: functional;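 note: stress induced by proteasome inhibitor MG132 added 30 min after compound; luciferase reporter driven by HSF1 response element in NIH3T3 cells; actives raise luminescence as potentiators of the MG132 stress response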
[5] = biological target: T3, Ubiquitin-conjugating enzyme E2 N (Homo sapiens, UniProt P61088); format: functional;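 note: Dose-response confirmation in a TR-FRET assay detecting UBC13-driven polyubiquitin chain formation, inhibition measured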
T3 sequence (P61088 whole entry): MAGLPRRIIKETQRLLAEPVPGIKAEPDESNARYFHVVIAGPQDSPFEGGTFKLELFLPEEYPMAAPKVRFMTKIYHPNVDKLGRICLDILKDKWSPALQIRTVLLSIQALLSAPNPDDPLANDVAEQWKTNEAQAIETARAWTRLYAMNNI

[6] = non-specific 3'UTR reporter inhibition in Clone20-Shn3RL – cell-based, Renilla luciferase, cherry-picked, counter-screen for Shn3 inhibitor project, dose response (AID 624133); format: functional
[7] = reduction of Shn3 3'UTR-driven luciferase in osteoblasts – cell-based, Clone20 osteoblasts, firefly luciferase, cherry-picked, dose response (AID 624132); format: functional;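 note: firefly luciferase luminescence from reporter carrying the Shn3 3'UTR in osteoblasts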
[8] = biological target: T4, Rac GTPase-activating protein 1 (Homo sapiens, UniProt Q9H0H5); assay: blockers of MgcRacGAP-driven Rac1 GTP hydrolysis – biochemical, ADP Hunter fluorescence, primary and confirmatory, confirmation (AID 624330); format: functional
T4 sequence (Q9H0H5 whole entry): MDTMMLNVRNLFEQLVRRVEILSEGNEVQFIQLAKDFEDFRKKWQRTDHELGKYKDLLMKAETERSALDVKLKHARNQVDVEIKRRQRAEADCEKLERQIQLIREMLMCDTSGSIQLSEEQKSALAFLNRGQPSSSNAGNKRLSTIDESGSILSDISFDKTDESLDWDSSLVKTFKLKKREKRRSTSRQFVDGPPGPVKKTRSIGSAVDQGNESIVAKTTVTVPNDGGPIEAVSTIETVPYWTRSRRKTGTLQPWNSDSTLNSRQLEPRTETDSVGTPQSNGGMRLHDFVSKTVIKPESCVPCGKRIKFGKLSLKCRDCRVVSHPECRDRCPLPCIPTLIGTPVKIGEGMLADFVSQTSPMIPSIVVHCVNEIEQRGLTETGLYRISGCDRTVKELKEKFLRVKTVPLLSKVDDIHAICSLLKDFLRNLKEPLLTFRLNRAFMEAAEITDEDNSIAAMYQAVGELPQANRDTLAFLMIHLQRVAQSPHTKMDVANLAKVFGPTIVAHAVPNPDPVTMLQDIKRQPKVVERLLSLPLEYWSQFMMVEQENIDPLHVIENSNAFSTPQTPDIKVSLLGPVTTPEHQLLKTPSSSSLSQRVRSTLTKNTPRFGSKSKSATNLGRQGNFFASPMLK

Sequence of Cytochrome P450 3A4 (P08684 whole entry): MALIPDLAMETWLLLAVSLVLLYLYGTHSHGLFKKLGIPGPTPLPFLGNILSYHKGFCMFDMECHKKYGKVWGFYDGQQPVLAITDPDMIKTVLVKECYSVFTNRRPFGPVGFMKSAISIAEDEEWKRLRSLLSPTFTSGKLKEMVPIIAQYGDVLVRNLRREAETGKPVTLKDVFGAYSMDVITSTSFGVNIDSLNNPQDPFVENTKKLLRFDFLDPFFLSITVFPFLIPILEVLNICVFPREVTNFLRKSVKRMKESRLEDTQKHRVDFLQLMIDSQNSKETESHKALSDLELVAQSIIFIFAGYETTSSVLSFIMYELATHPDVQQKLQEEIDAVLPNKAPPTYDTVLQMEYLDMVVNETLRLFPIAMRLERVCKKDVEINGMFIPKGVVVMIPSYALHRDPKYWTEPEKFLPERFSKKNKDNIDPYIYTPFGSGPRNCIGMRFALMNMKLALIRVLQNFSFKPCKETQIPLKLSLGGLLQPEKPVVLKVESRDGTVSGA

COc1ccccc1NC(=O)[C@H](COCc1ccccc1)NC(=O)OC(C)(C)C
EC50 [1]: > 195 µM (not active) | AC50 (Cytochrome P450 3A4): 39.8 µM (inconclusive) | AC50 (Cytochrome P450 1A2): 25.1 µM (inconclusive)

CSc1ccc(N2C(=O)NC3(CCCCC3)C2=O)cc1
EC50 [2]: 96.3 µM (active) | EC50 [3]: 20.4 µM (active) | EC50 (H4): 19.7 µM (active)

CCOc1ccc(NC(=O)C2CC(=O)N3CCCN=C3S2)cc1 (stereo not given)
EC50 [4]: > 260 µM (inactive)

O=C(CCS(=O)(=O)c1ccccc1)Nc1ccccn1
EC50 [4]: > 260 µM (inactive)

CC(=O)Nc1ccc(S(=O)(=O)N2CCN(CC(O)COc3ccc4ccccc4c3)CC2)cc1 (stereo not given)
IC50 [5]: > 20 µM (inactive)

COc1cccc(CNc2ccc([N+](=O)[O-])cc2Cl)c1O
EC50 [4]: 163 µM (active)

CN1CCCC(CC2c3ccccc3Sc3ccccc32)C1 (stereo not given) [METHIXENE HYDROCHLORIDE]
IC50 [5]: > 20 µM (inactive)

Cc1ccc(SCCCCN2CCOCC2)cc1
EC50 [4]: > 260 µM (inactive)

CCOc1ccc(NC(=O)c2cccc3ccccc23)cc1
EC50 [2]: 11.5 µM (active) | EC50 [3]: 72.3 µM (active) | EC50 (H4): > 120 µM (not active)

COc1ccc([C@@H]2[C@@H]3C(=O)N(C(C)(C)C)C(=O)[C@@H]3[C@]3(Cc4ccccc4)C(=O)N(c4cccc(C)c4)C(=O)N23)cc1
EC50 [2]: > 120 µM (not active) | EC50 [3]: > 120 µM (not active) | EC50 (H4): > 120 µM (not active)

O=C(Cc1ccccc1)Nc1cc(Cl)ccc1Sc1ccccc1
EC50 [4]: > 260 µM (inactive)

NS(=O)(=O)c1ccc(CCNC(=O)c2ccc([N+](=O)[O-])s2)cc1
EC50 [4]: 15.7 µM (active)

Cc1ccc2c(c1)c1cccc3c1n2CCN3CCC(N)=O
EC50 [2]: > 120 µM (not active) | EC50 [3]: 1.71 µM (active) | EC50 (H4): 9.21 µM (active)

C=CCn1c(C)cc(C(=O)COC(=O)CNC(=O)c2ccccc2)c1C
EC50 [1]: 2.44 µM (active)

COc1ccc([C@H]2CC(=O)C=C(c3ccc4c(c3)OCO4)C2)cc1OC
AC50 [6]: 28.9 µM (active) | AC50 [7]: 58.3 µM (active)

Oc1ccccc1N1CCN(c2ncnc3scc(-c4ccc(F)cc4)c23)CC1
EC50 [1]: > 195 µM (not active)

O=C(CSc1ncccn1)NCCc1ccccc1
EC50 [1]: > 195 µM (not active)

CC(C)(C)c1cc(-n2ccnc2)n2ncc(-c3ccc(Cl)cc3)c2n1
EC50 [2]: 13.7 µM (active) | EC50 [3]: > 120 µM (not active) | EC50 (H4): 78.9 µM (active)

CCc1ccc(NC(=O)c2cnc3scc(C)n3c2=O)cc1
EC50 [2]: 17.6 µM (active) | EC50 [3]: 9.98 µM (active) | EC50 (H4): 12.6 µM (active)

CCOC(=O)c1c(N2C(=O)C3C4C=CC(O4)C3C2=O)sc2c1CCCC2 (stereo not given)
EC50 [4]: > 260 µM (inactive)

Cc1ccc(S(=O)(=O)n2ccc(=O)[nH]2)cc1
EC50 [1]: > 195 µM (not active)

O=[N+]([O-])c1c(-c2cn[nH]c2)n[nH]c1-c1cn[nH]c1
IC50 [5]: > 20 µM (inactive)

COc1cc(/C=N/N2CCN(C3c4ccccc4-c4ccccc43)CC2)cc(OC)c1OC
EC50 [4]: > 260 µM (inactive)

CCCNC(=O)NC1C(NC(=O)NCCC)N(C)C(=O)N1C (stereo not given)
EC50 [1]: > 195 µM (not active)

Oc1onc(-c2ccccc2)c1-c1ccccc1
EC50 [1]: > 195 µM (not active)

COCCCNC(=O)c1ccc(NS(C)(=O)=O)cc1
EC50 [4]: > 260 µM (inactive)

Cc1ccc(NC(=O)CN(C)C2CCCCC2)cc1Cl
EC50 [1]: > 195 µM (not active) | IC50 [8]: 152 µM (active)

CC1=CC(C)=Nc2cc(C)ccc2N1
EC50 [2]: > 60 µM (not active) | EC50 [3]: 33.3 µM (active) | EC50 (H4): 41.1 µM (active)

O=C(CSCc1ccccc1)Nc1ccc2c(c1)OCO2
EC50 [2]: 2.27 µM (inconclusive) | EC50 [3]: 26 µM (active) | EC50 (H4): 18.6 µM (active)

NC(CSCc1cccc(Br)c1)C(=O)O (stereo not given)
EC50 [4]: > 260 µM (inactive)
